# In US9149038B2, “4-amino-6-(heterocyclic)picolinates and 6-amino-2-(heterocyclic)pyrimidine-4-carboxylates and their use as herbicides” (Dow AgroSciences LLC, priority 2013, dated 2015):
# Where two headings read alike, the source gives them in different places.
# How the values were obtained:
# [1] = test system: Key Grass and Sedge Weeds as well as Grass Crops; experiment: Post-Emergent Test II: postemergent herbicidal activity, visual rating after 14 d (Table 8); format: in vivo; details: post-emergence, 336 h; for pest or weed control at 35 g/ha: 35 g ai/ha; for pest or weed control at 70 g/ha: 70 g ai/ha; for pest or weed control at 140 g/ha: 140 g ai/ha
# Summary of the method: (§1)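 Greenhouse-grown plants at the first or second true leaf stage (7-21 d, ~15 h photoperiod, 23-29° C day) were sprayed with compound in acetone/DMSO-based aqueous spray containing crop oil concentrate and Triton X-155 at 187 L/ha. Injury versus untreated plants was rated visually after 14 d on a 0-100 scale.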
# [2] = test system: Key Broadleaf Weed and Crop Species; experiment: Post-Emergent Test II: postemergent herbicidal activity, visual rating after 14 d (Table 7); format: in vivo; details: post-emergence, 336 h; for pest or weed control at 35 g/ha: 35 g ai/ha; for pest or weed control at 70 g/ha: 70 g ai/ha; for pest or weed control at 140 g/ha: 140 g ai/ha
# Summary of the method: as §1
# [3] = barnyardgrass (Echinochloa crus-galli), read-out: Visual Growth Reduction (%) 14 Days After Application ECHCG
# [4] = giant foxtail (Setaria faberi), read-out: Visual Growth Reduction (%) 14 Days After Application SETFA
# [5] = maize, corn (Zea mays), read-out: Visual Growth Reduction (%) 14 Days After Application ZEAMX
# [6] = rice (Oryza sativa), read-out: Visual Growth Reduction (%) 14 Days After Application ORYSA
# [7] = wheat, spring (Triticum aestivum), read-out: Visual Growth Reduction (%) 14 Days After Application TRZAS
# [8] = yellow nutsedge (Cyperus esculentus), read-out: Visual Growth Reduction (%) 14 Days After Application CYPES
# [9] = lambsquarters (Chenopodium album), read-out: Visual Growth Reduction (%) 14 Days After Application CHEAL
# [10] = oilseed rape, canola (Brassica napus), read-out: Visual Growth Reduction (%) 14 Days After Application BRSNN
# [11] = redroot pigweed (Amaranthus retroflexus), read-out: Visual Growth Reduction (%) 14 Days After Application AMARE
# [12] = sunflower (Helianthus annuus), read-out: Visual Growth Reduction (%) 14 Days After Application HELAN
# [13] = velvetleaf (Abutilon theophrasti), read-out: Visual Growth Reduction (%) 14 Days After Application ABUTH
# [14] = wild poinsettia (Euphorbia heterophylla), read-out: Visual Growth Reduction (%) 14 Days After Application EPHHL
smiles,measurement,setting,value
COC(=O)c1nc(-c2cc3c(cc2Cl)OC(F)(F)O3)c(F)c(N)c1Cl [Compound 12],pest or weed control at 35 g/ha,[1]; [3],0 to 29%
same,pest or weed control at 70 g/ha,[1]; [3],0 to 29%
same,pest or weed control at 140 g/ha,[1]; [3],0 to 29%
same,pest or weed control at 35 g/ha,[1]; [4],0 to 29%
same,pest or weed control at 70 g/ha,[1]; [4],0 to 29%
same,pest or weed control at 140 g/ha,[1]; [4],0 to 29%
same,pest or weed control at 35 g/ha,[1]; [5],0 to 29%
same,pest or weed control at 70 g/ha,[1]; [5],0 to 29%
same,pest or weed control at 140 g/ha,[1]; [5],0 to 29%
same,pest or weed control at 35 g/ha,[1]; [6],0 to 29%
same,pest or weed control at 70 g/ha,[1]; [6],0 to 29%
same,pest or weed control at 140 g/ha,[1]; [6],0 to 29%
same,pest or weed control at 35 g/ha,[1]; [7],0 to 29%
same,pest or weed control at 70 g/ha,[1]; [7],0 to 29%
same,pest or weed control at 140 g/ha,[1]; [7],0 to 29%
same,pest or weed control at 35 g/ha,[1]; [8],0 to 29%
same,pest or weed control at 70 g/ha,[1]; [8],0 to 29%
same,pest or weed control at 140 g/ha,[1]; [8],0 to 29%
same,pest or weed control at 35 g/ha,[2]; [9],0 to 29%
same,pest or weed control at 70 g/ha,[2]; [9],0 to 29%
same,pest or weed control at 140 g/ha,[2]; [9],0 to 29%
same,pest or weed control at 35 g/ha,[2]; [10],0 to 29%
same,pest or weed control at 70 g/ha,[2]; [10],0 to 29%
same,pest or weed control at 140 g/ha,[2]; [10],0 to 29%
same,pest or weed control at 35 g/ha,[2]; [11],0 to 29%
same,pest or weed control at 70 g/ha,[2]; [11],0 to 29%
same,pest or weed control at 140 g/ha,[2]; [11],0 to 29%
same,pest or weed control at 35 g/ha,[2]; [12],0 to 29%
same,pest or weed control at 70 g/ha,[2]; [12],0 to 29%
same,pest or weed control at 140 g/ha,[2]; [12],0 to 29%
same,pest or weed control at 35 g/ha,[2]; [13],0 to 29%
same,pest or weed control at 70 g/ha,[2]; [13],0 to 29%
same,pest or weed control at 140 g/ha,[2]; [13],60 to 74%
same,pest or weed control at 35 g/ha,[2]; [14],0 to 29%
same,pest or weed control at 70 g/ha,[2]; [14],0 to 29%
same,pest or weed control at 140 g/ha,[2]; [14],0 to 29%
